Data reported in EPA's ToxValDB 9.5 (doi:10.2903/j.efsa.2005.285).

Tests used:
Ovis sp. = settings: oral, diet
Gallus gallus = settings: reproduction developmental, oral, diet, F
Canidae = settings: chronic, oral, Beagle, organ weight
Bovidae = settings: subchronic, oral, diet; for LEL: duration: 12 weeks, no effects
Oncorhynchus mykiss = settings: chronic/long-term; duration: 240 days; oral; feed; clinical chemistry
Sus scrofa = settings: subchronic; duration: 60 days; oral; diet; Not specified; no effects

ClC1=C(Cl)[C@]2(Cl)[C@H]3[C@H]([C@@H]4C=C[C@H]3C4)[C@@]1(Cl)C2(Cl)Cl [Aldrin]
LEL (Ovis sp.; subchronic, duration: 12 weeks, no effects): 0.3 mg/kg-day
NOAEL (Gallus gallus; duration: 2 years, no effects): 0.06 mg/kg-day
NOAEL (Canidae; duration: 15.6 months, diet, M/F): 0.05 mg/kg-day
LEL (Bovidae; M): 0.3 mg/kg-day
NOAEL (Bovidae; duration: 43 days, F, clinical signs): 1.5 mg/kg-day

ClC1=C(Cl)[C@]2(Cl)[C@@H]3[C@@H]4C[C@@H]([C@H]5O[C@@H]45)[C@@H]3[C@@]1(Cl)C2(Cl)Cl [Dieldrin]
NOAEL (Ovis sp.; chronic, duration: 32 weeks, body weight): 1 mg/kg-day
LOEL (Oncorhynchus mykiss): 14 µg/kg-day
NOAEL (Gallus gallus; duration: 13 months, mortality): 0.6 mg/kg-day
LEL (Sus scrofa): 1.2 mg/kg-day
NOAEL (Canidae; duration: 2 years, capsule): 0.005 mg/kg-day
LEL (Bovidae; F): 0.08 mg/kg-day
LEL (Bovidae; M): 0.06 mg/kg-day
